Reference: BindingDB's records for doi:10.1016/j.ejmech.2017.04.013 (Ghent University, 2017)

Experiments:
[1] = target: Histone deacetylase 8 (Homo sapiens) (UniProt Q9BY41); assay: Inhibition of recombinant human HDAC8 using Boc-Lys (Ac)-AMC substrate by fluorescence assay
[2] = target: Histone deacetylase 1 (Homo sapiens, UniProt Q13547); assay: Inhibition of HDAC1 (unknown origin)
[3] = target: Histone deacetylase 9 (Homo sapiens, UniProt Q9UKV0); assay: ChEBML_1684755
Histone deacetylase 9, sequence (Q9UKV0 whole entry): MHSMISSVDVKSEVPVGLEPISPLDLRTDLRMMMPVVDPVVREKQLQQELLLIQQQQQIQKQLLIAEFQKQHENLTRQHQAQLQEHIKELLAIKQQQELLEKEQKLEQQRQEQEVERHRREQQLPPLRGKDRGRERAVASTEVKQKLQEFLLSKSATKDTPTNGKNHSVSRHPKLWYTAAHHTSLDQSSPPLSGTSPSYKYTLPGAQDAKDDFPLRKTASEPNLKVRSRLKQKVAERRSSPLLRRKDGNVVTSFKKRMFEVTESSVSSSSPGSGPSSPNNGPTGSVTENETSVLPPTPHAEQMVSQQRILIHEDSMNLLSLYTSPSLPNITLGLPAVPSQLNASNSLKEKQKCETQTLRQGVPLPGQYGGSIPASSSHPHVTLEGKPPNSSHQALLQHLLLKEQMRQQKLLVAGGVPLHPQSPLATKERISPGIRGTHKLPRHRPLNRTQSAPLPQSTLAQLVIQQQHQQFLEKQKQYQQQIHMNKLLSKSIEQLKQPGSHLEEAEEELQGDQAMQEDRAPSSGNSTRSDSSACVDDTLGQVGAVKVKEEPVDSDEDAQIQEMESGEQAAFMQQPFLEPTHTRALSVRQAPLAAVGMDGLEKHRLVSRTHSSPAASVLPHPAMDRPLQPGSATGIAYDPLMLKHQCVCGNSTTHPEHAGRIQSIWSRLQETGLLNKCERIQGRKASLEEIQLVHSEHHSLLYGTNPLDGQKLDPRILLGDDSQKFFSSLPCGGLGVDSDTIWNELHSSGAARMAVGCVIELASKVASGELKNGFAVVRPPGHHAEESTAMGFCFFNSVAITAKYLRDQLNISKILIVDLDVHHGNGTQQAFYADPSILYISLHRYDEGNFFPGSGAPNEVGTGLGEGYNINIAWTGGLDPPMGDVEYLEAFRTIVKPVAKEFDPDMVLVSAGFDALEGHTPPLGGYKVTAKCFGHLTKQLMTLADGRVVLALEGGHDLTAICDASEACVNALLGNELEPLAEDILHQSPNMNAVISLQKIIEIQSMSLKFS

Histone deacetylase 1, sequence (Q13547 whole entry): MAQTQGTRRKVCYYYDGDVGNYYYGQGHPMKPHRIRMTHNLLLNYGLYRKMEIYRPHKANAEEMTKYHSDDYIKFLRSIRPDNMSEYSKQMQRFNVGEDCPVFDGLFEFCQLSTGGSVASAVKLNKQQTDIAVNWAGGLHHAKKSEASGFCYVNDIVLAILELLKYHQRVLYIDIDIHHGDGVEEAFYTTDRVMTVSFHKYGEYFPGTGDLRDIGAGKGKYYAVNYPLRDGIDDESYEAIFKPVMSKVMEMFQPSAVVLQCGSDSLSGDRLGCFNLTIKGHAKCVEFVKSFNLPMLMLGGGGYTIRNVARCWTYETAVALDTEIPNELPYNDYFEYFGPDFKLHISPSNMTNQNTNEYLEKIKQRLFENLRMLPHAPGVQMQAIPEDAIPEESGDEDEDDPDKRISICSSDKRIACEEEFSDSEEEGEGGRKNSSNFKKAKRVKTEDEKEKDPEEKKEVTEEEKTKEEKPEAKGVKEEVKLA
Histone deacetylase 8 (Homo sapiens), sequence (Q9BY41 whole entry, looked up): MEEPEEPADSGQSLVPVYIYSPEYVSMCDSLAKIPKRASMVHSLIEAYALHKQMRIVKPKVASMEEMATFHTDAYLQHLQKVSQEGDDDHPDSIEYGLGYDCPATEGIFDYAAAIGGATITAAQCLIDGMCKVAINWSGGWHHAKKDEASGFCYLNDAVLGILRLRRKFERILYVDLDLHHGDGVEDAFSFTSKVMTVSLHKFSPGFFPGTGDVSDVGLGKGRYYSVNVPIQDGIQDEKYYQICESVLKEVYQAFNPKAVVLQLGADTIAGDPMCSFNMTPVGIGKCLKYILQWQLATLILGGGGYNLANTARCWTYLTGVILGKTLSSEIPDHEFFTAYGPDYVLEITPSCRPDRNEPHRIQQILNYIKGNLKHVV

Row | IC50 [1] [nM] | IC50 [2] [nM] | IC50 [3] [nM] | Compound
1 | 280 | – | – | O=C(NO)c1ccc(Cn2cc(-c3ccc(CN4CCCC4)cc3)nn2)cc1
2 | – | 9000 | 70 | Cc1nc2ccccc2n1Cc1ccc(C(=O)NO)cc1F
